Source: ChEMBL document CHEMBL4265876, “Natural Products with Heteroatom-Rich Ring Systems” (J Nat Prod, 2017)
Converted amounts (≈) assume the structure as drawn.

Experiments:
SF-268 = experiment: Cytotoxicity against human SF268 cells assessed as cell killing at 50 uM relative to control; type: functional
T-cell = experiment: Inhibition of ConA-induced cell proliferation of BALB/c mouse T-lymphocytes assessed as reduction in [3H]thymidine incorporation incubated for 48 hrs by beta scintillation counting method; type: functional
V79 = experiment: Cytotoxicity against chinese hamster V79 cells; type: cell-based; settings: Cricetulus griseus
L1210 [1] = experiment: Cytotoxicity against mouse L1210 cells; type: functional, cell-based
Cercospora sojina = experiment: Antifungal activity against Cercospora sojina assessed as inhibition zone at 100 ug/hole; type: functional
Fusarium oxysporum = experiment: Antifungal activity against Fusarium oxysporum assessed as inhibition zone at 100 ug/hole; type: functional
Aspergillus niger = experiment: Antifungal activity against Aspergillus niger assessed as inhibition zone at 100 ug/hole; type: functional
Pyricularia oryzae = experiment: Antimicrobial activity against Pyricularia orizae; type: functional
[2] = Inhibition of protein kinase A (unknown origin); parameters: species or system Homo sapiens
HeLa S3 = experiment: Cytotoxicity against human HeLaS3 cells; type: functional, cell-based
L1210 [3] = experiment: Cytotoxicity against mouse L1210 cells assessed as decrease in cell viability at 5 ug; type: functional
Micrococcus luteus = experiment: Antibacterial activity against Micrococcus luteus assessed as inhibition zone at 20 ug; type: functional; settings: read-out: IZ
K562 = experiment: Cytotoxicity against human K562 cells assessed as decrease in cell viability after 48 hrs by MTT assay; type: functional, cell-based; settings: K562, 48 h
A549 = experiment: Cytotoxicity against human A549 cells assessed as decrease in cell viability after 48 hrs by MTT assay; type: functional, cell-based; settings: A549, 48 h
Ruegeria atlantica = experiment: […] activity against Ruegeria atlantica assessed as inhibition zone at 50 ug/disk; type: functional; settings: read-out: IZ
Saccharomyces cerevisiae = experiment: Antifungal activity against Saccharomyces cerevisiae assessed as inhibition zone at 50 ug/disk; type: functional; settings: read-out: IZ
Staphylococcus aureus = experiment: Antibacterial activity against Staphylococcus aureus assessed as inhibition zone at 50 ug/disk; type: functional; settings: read-out: IZ
Escherichia coli = experiment: Antibacterial activity against Escherichia coli assessed as inhibition zone at 50 ug/disk; type: functional; settings: read-out: IZ
Mucor hiemalis = experiment: Antifungal activity against Mucor hiemalis assessed as inhibition zone at 50 ug/disk; type: functional; settings: read-out: IZ
HGC-27 = experiment: Growth inhibition of human HGC27 cells after 48 hrs by MTT assay; type: functional, cell-based; settings: HGC-27, 48 h

CC[C@H](C)C1=C(O)[N@@+]2([O-])Oc3ccc(-c4c(O)c(O)c(-c5ccc(OC(C)=O)cc5)c(OC(C)=O)c4OC(C)=O)cc3O[C@@]2([C@@H](C)CC)C(=O)N1O
Activity (SF-268): 95%

CC[C@H](C)C1=C(OC(C)=O)[N@+]2([O-])Oc3ccc(-c4c(O)c(O)c(-c5ccc(OC(C)=O)cc5)c(OC(C)=O)c4OC(C)=O)cc3O[C@@]2([C@@H](C)CC)C(=O)N1O
Activity (SF-268): 93%

COC1=C[C@@H](C)O[C@@H](O[C@H]2CC[C@@]3(C)C(=CC[C@@H]4[C@@H]3CC[C@@]3(C)[C@H]4CC[C@]3(O)[C@H](C)O[C@H]3C[C@H]4OCO[C@@]5(C[C@@H](OC)[C@H](O[C@H]6C[C@H](OC)[C@H](O[C@H]7C[C@@H](O)[C@H](O[C@H]8C[C@H](OC)[C@H](O[C@H]9C[C@@H](OC)[C@H](O)[C@@H](C)O9)[C@@H](C)O8)[C@@H](C)O7)[C@@H](C)O6)[C@@H](C)O5)O[C@@H]4[C@@H](C)O3)C2)C1=O
IC50 (T-cell): 290 to 1970 nM

COc1cc(CCN(C)C)c2c(c1O)SSC(C)S2 (stereo not given)
IC50 (V79): 140 nM
IC50 (L1210 [1]): 700 nM

CC(=O)O[C@H]1CC[C@]23C[C@]24CC[C@]2(C)[C@@H]([C@H](C)CCC5OOC(C)(C)O5)CC[C@@]2(C)[C@@H]4CC[C@H]3C1(C)C (stereo not given in full)
inhibition zone (IZ) (Cercospora sojina): 2 mm
inhibition zone (IZ) (Fusarium oxysporum): 2 mm
inhibition zone (IZ) (Aspergillus niger): 2 mm

C1SCSSCS1
MIC (Pyricularia oryzae): 50 µg/mL (≈ 294 µM)

CO[C@H]1C[C@H](O[C@@H]2[C@@H](C)O[C@@]3(C[C@H]2OC)OCO[C@@H]2C[C@H](O[C@@H](C)[C@@]4(O)CC[C@H]5[C@@H]6CC=C7C[C@@H](O)CC[C@]7(C)[C@H]6CC[C@@]54C)O[C@H](C)[C@H]2O3)O[C@H](C)[C@H]1O[C@H]1C[C@@H](O)[C@H](O[C@H]2C[C@H](OC)[C@H](O[C@H]3C[C@@H](OC)[C@H](O)[C@@H](C)O3)[C@@H](C)O2)[C@@H](C)O1
IC50 (T-cell): 290 to 1970 nM

COc1c(OC)c2c(c(CCN)c1SC)SSSSS2
IC50 [2]: > 25 µg/mL

CN1CN2CCCN3CCCC(=N1)C32 (stereo not given)
IC50 (HeLa S3): 6.8 µg/mL (≈ 35 µM)

N[C@@H]1CSCON2CCc3c([nH]c4ccc(O)c(Br)c34)[C@H]12 [EUDISTOMIN E]
Activity (L1210 [3]): 100%
zone of inhibition at 20 µg/disc (Micrococcus luteus): 46 mm

COc1cc(CCN(C)C)c2c(c1O)SSSSS2 [ISOLISSOCLINOTOXIN B]
IC50 (V79): 250 nM
IC50 (L1210 [1]): 640 nM

CC1=C(c2ccccc2)N(C)NC(=O)N1
IC50 (K562): 66900 nM
IC50 (A549): 21800 nM

NCCc1cc(O)c(O)c2c1SSSSS2
IC50 [2]: > 25 µg/mL

COc1c(OC)c2c(c(CCN(C)C)c1SC)SSSSS2
zone of inhibition at 50 µg/disc (Ruegeria atlantica): 14.2 to 30 mm
IC50 [2]: > 25 µg/mL
IC50 (V79): 150 nM
zone of inhibition at 50 µg/disc (Saccharomyces cerevisiae): 14.2 to 30 mm
zone of inhibition at 50 µg/disc (Staphylococcus aureus): 14.2 to 30 mm
zone of inhibition at 50 µg/disc (Escherichia coli): 14.2 to 30 mm
zone of inhibition at 50 µg/disc (Mucor hiemalis): 14.2 to 30 mm

COC1=C[C@@H](C)O[C@@H](O[C@H]2CC[C@@]3(C)C(=CC[C@@H]4[C@@H]3CC[C@@]3(C)[C@H]4CC[C@]3(O)[C@H](C)O[C@H]3C[C@H]4OCO[C@@]5(C[C@@H](OC)[C@H](O[C@H]6C[C@H](O)[C@H](O[C@H]7C[C@@H](O)[C@H](O[C@H]8C[C@H](OC)[C@H](O[C@@H]9O[C@H](C)[C@H](O)[C@H](OC)[C@H]9OC(C)=O)[C@@H](C)O8)[C@@H](C)O7)[C@@H](C)O6)[C@@H](C)O5)O[C@@H]4[C@@H](C)O3)C2)C1=O
IC50 (T-cell): 290 to 1970 nM

Oc1ccc(Cc2nsc(Cc3ccc(O)cc3)n2)cc1
IC50 (HGC-27): 172000 nM

COc1cc(CCN(C)C)c2sc3c(OC)c(OC)c(SC)c(CCN(C)C)c3ssc2c1O [LISSOCLIBADIN 5]
zone of inhibition at 50 µg/disc (Staphylococcus aureus): 15.8 mm
zone of inhibition at 50 µg/disc (Escherichia coli): 11.6 mm
